Experimental data taken from patent US20110250135A1, “Piperazine Derivatives for Binding and Imaging Amyloid Plaques and Their Use” (Bayer Schering Pharma Aktiengesellschaft, priority 2008, published 2011).

Key:
[1] = molecular target: T1, Aβ plaques (Homo sapiens, UniProt P05067); assay: Autoradiographical analysis of binding to cryosections from cortex of AD patients and controls; details: F-18 labeled compound; Alzheimer's disease patients (AD) vs controls without Aβ plaques
T1 construct: controls without Aβ plaques; from tissue; host or cells: frontal lobe / cortex sections (frozen and paraffin) from AD patients, FTD patients and age-matched controls
Summary of the method: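 Frozen (18 μm) and deparaffinized paraffin (6 μm) frontal-lobe sections from Alzheimer's, frontotemporal dementia and age-matched control brains were incubated 1.5 h at room temperature with F-18 test compound at 10 Bq/μl in 25 mM Hepes pH 7.4, 0.1% BSA. Blocking used 1000-fold excess unlabeled compound; phosphoimager readout.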

[2] = Biodistribution: organ distribution of F-18 signal in mice; assay type: in vivo, male NMRI mice; details: for Organ distribution of F-18 signal, intestine: intestine (with content); for Organ distribution of F-18 signal, stomach: stomach (without content)
Summary of the method: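 Male NMRI mice (~30 g, 3 per time point) received ca. 150 kBq of the test compound i.v. via tail vein. At 2, 5, 30, 60 and 240 min, urine and feces were collected and organs and tissues taken for gamma counting. Values are decay-corrected % ID/g ± SD.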

T1 sequence (P05067 672-713 limits assumed): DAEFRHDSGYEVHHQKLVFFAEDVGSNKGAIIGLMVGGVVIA

O=C(NCC(=O)N1CCN(c2ccc(OCc3ccccc3)cc2)CC1)c1ccnc([18F])c1 [Example 11c, N-{2-[4-(4-Benzyloxy-phenyl)-piperazin-1-yl]-2-oxoethyl}-2-[F-18]-fluoro-isonicotinamide]
autoradiographical analysis of binding to cryosections from cortex [1]: Specific binding in plaque-rich regions of AD samples
Organ distribution of F-18 signal, adrenals ([2]; 2 min post i.v. injection): 9.24 % ID/g
Organ distribution of F-18 signal, adrenals ([2]; 5 min post i.v. injection): 5.60 % ID/g
Organ distribution of F-18 signal, adrenals ([2]; 30 min post i.v. injection): 2.41 % ID/g
Organ distribution of F-18 signal, adrenals ([2]; 60 min post i.v. injection): 2.45 % ID/g
Organ distribution of F-18 signal, adrenals ([2]; 240 min post i.v. injection): 0.30 % ID/g
Organ distribution of F-18 signal, blood ([2]; 2 min post i.v. injection): 1.70 % ID/g
Organ distribution of F-18 signal, blood ([2]; 5 min post i.v. injection): 1.78 % ID/g
Organ distribution of F-18 signal, blood ([2]; 30 min post i.v. injection): 1.13 % ID/g
Organ distribution of F-18 signal, blood ([2]; 60 min post i.v. injection): 0.49 % ID/g
Organ distribution of F-18 signal, blood ([2]; 240 min post i.v. injection): 0.12 % ID/g
Organ distribution of F-18 signal, brain ([2]; 2 min post i.v. injection): 5.54 % ID/g
Organ distribution of F-18 signal, brain ([2]; 5 min post i.v. injection): 4.73 % ID/g
Organ distribution of F-18 signal, brain ([2]; 30 min post i.v. injection): 1.00 % ID/g
Organ distribution of F-18 signal, brain ([2]; 60 min post i.v. injection): 0.34 % ID/g
Organ distribution of F-18 signal, brain ([2]; 240 min post i.v. injection): 0.05 % ID/g
Organ distribution of F-18 signal, fat ([2]; 2 min post i.v. injection): 1.52 % ID/g
Organ distribution of F-18 signal, fat ([2]; 5 min post i.v. injection): 1.84 % ID/g
Organ distribution of F-18 signal, fat ([2]; 30 min post i.v. injection): 1.94 % ID/g
Organ distribution of F-18 signal, fat ([2]; 60 min post i.v. injection): 0.80 % ID/g
Organ distribution of F-18 signal, fat ([2]; 240 min post i.v. injection): 0.08 % ID/g
Organ distribution of F-18 signal, femur ([2]; 2 min post i.v. injection): 1.53 % ID/g
Organ distribution of F-18 signal, femur ([2]; 5 min post i.v. injection): 1.54 % ID/g
Organ distribution of F-18 signal, femur ([2]; 30 min post i.v. injection): 0.68 % ID/g
Organ distribution of F-18 signal, femur ([2]; 60 min post i.v. injection): 0.38 % ID/g
Organ distribution of F-18 signal, femur ([2]; 240 min post i.v. injection): 0.16 % ID/g
Organ distribution of F-18 signal, heart ([2]; 2 min post i.v. injection): 4.68 % ID/g
Organ distribution of F-18 signal, heart ([2]; 5 min post i.v. injection): 4.36 % ID/g
Organ distribution of F-18 signal, heart ([2]; 30 min post i.v. injection): 1.54 % ID/g
Organ distribution of F-18 signal, heart ([2]; 60 min post i.v. injection): 0.54 % ID/g
Organ distribution of F-18 signal, heart ([2]; 240 min post i.v. injection): 0.13 % ID/g
Organ distribution of F-18 signal, intestine ([2]; 2 min post i.v. injection): 2.14 % ID/g
Organ distribution of F-18 signal, intestine ([2]; 5 min post i.v. injection): 2.66 % ID/g
Organ distribution of F-18 signal, intestine ([2]; 30 min post i.v. injection): 10.01 % ID/g
Organ distribution of F-18 signal, intestine ([2]; 60 min post i.v. injection): 14.79 % ID/g
Organ distribution of F-18 signal, intestine ([2]; 240 min post i.v. injection): 13.00 % ID/g
Organ distribution of F-18 signal, kidney ([2]; 2 min post i.v. injection): 7.68 % ID/g
Organ distribution of F-18 signal, kidney ([2]; 5 min post i.v. injection): 8.07 % ID/g
Organ distribution of F-18 signal, kidney ([2]; 30 min post i.v. injection): 7.83 % ID/g
Organ distribution of F-18 signal, kidney ([2]; 60 min post i.v. injection): 4.37 % ID/g
Organ distribution of F-18 signal, kidney ([2]; 240 min post i.v. injection): 1.12 % ID/g
Organ distribution of F-18 signal, liver ([2]; 2 min post i.v. injection): 7.17 % ID/g
Organ distribution of F-18 signal, liver ([2]; 5 min post i.v. injection): 12.14 % ID/g
Organ distribution of F-18 signal, liver ([2]; 30 min post i.v. injection): 9.41 % ID/g
Organ distribution of F-18 signal, liver ([2]; 60 min post i.v. injection): 4.72 % ID/g
Organ distribution of F-18 signal, liver ([2]; 240 min post i.v. injection): 2.09 % ID/g
Organ distribution of F-18 signal, lung ([2]; 2 min post i.v. injection): 4.14 % ID/g
Organ distribution of F-18 signal, lung ([2]; 5 min post i.v. injection): 3.76 % ID/g
Organ distribution of F-18 signal, lung ([2]; 30 min post i.v. injection): 1.65 % ID/g
Organ distribution of F-18 signal, lung ([2]; 60 min post i.v. injection): 0.69 % ID/g
Organ distribution of F-18 signal, lung ([2]; 240 min post i.v. injection): 0.31 % ID/g
Organ distribution of F-18 signal, muscle ([2]; 2 min post i.v. injection): 2.38 % ID/g
Organ distribution of F-18 signal, muscle ([2]; 5 min post i.v. injection): 2.54 % ID/g
Organ distribution of F-18 signal, muscle ([2]; 30 min post i.v. injection): 1.03 % ID/g
Organ distribution of F-18 signal, muscle ([2]; 60 min post i.v. injection): 0.38 % ID/g
Organ distribution of F-18 signal, muscle ([2]; 240 min post i.v. injection): 0.07 % ID/g
Organ distribution of F-18 signal, pancreas ([2]; 2 min post i.v. injection): 4.44 % ID/g
Organ distribution of F-18 signal, pancreas ([2]; 5 min post i.v. injection): 3.97 % ID/g
Organ distribution of F-18 signal, pancreas ([2]; 30 min post i.v. injection): 2.20 % ID/g
Organ distribution of F-18 signal, pancreas ([2]; 60 min post i.v. injection): 0.77 % ID/g
Organ distribution of F-18 signal, pancreas ([2]; 240 min post i.v. injection): 0.18 % ID/g
Organ distribution of F-18 signal, skin ([2]; 2 min post i.v. injection): 1.22 % ID/g
Organ distribution of F-18 signal, skin ([2]; 5 min post i.v. injection): 1.80 % ID/g
Organ distribution of F-18 signal, skin ([2]; 30 min post i.v. injection): 1.43 % ID/g
Organ distribution of F-18 signal, skin ([2]; 60 min post i.v. injection): 0.66 % ID/g
Organ distribution of F-18 signal, skin ([2]; 240 min post i.v. injection): 0.10 % ID/g
Organ distribution of F-18 signal, spleen ([2]; 2 min post i.v. injection): 1.47 % ID/g
Organ distribution of F-18 signal, spleen ([2]; 5 min post i.v. injection): 2.01 % ID/g
Organ distribution of F-18 signal, spleen ([2]; 30 min post i.v. injection): 0.93 % ID/g
Organ distribution of F-18 signal, spleen ([2]; 60 min post i.v. injection): 0.37 % ID/g
Organ distribution of F-18 signal, spleen ([2]; 240 min post i.v. injection): 0.09 % ID/g
Organ distribution of F-18 signal, stomach ([2]; 2 min post i.v. injection): 3.46 % ID/g
Organ distribution of F-18 signal, stomach ([2]; 5 min post i.v. injection): 3.07 % ID/g
Organ distribution of F-18 signal, stomach ([2]; 30 min post i.v. injection): 3.10 % ID/g
Organ distribution of F-18 signal, stomach ([2]; 60 min post i.v. injection): 1.13 % ID/g
Organ distribution of F-18 signal, stomach ([2]; 240 min post i.v. injection): 0.34 % ID/g
Organ distribution of F-18 signal, tail ([2]; 2 min post i.v. injection): 8.55 % ID/g
Organ distribution of F-18 signal, tail ([2]; 5 min post i.v. injection): 5.41 % ID/g
Organ distribution of F-18 signal, tail ([2]; 30 min post i.v. injection): 3.21 % ID/g
Organ distribution of F-18 signal, tail ([2]; 60 min post i.v. injection): 0.87 % ID/g
Organ distribution of F-18 signal, tail ([2]; 240 min post i.v. injection): 0.39 % ID/g
Organ distribution of F-18 signal, testicle ([2]; 2 min post i.v. injection): 1.36 % ID/g
Organ distribution of F-18 signal, testicle ([2]; 5 min post i.v. injection): 1.70 % ID/g
Organ distribution of F-18 signal, testicle ([2]; 30 min post i.v. injection): 1.13 % ID/g
Organ distribution of F-18 signal, testicle ([2]; 60 min post i.v. injection): 0.65 % ID/g
Organ distribution of F-18 signal, testicle ([2]; 240 min post i.v. injection): 0.15 % ID/g
Organ distribution of F-18 signal, thyroid ([2]; 2 min post i.v. injection): 3.11 % ID/g
Organ distribution of F-18 signal, thyroid ([2]; 5 min post i.v. injection): 2.41 % ID/g
Organ distribution of F-18 signal, thyroid ([2]; 30 min post i.v. injection): 1.08 % ID/g
Organ distribution of F-18 signal, thyroid ([2]; 60 min post i.v. injection): 0.50 % ID/g
Organ distribution of F-18 signal, thyroid ([2]; 240 min post i.v. injection): 0.19 % ID/g
